According to ChEMBL document CHEMBL1140014, “Synthesis and evaluation of pyrazolo[3,4-b]pyridine CDK1 inhibitors as anti-tumor agents” (Bioorg Med Chem Lett, 2007):
Converted amounts (≈) assume the structure as drawn.

Assays:
[1] = molecular target: Cyclin-dependent kinase 1 (Homo sapiens, UniProt P06493); assay: Inhibition of CDK1
[2] = Inhibition of Aurora2; set-up: species or system Homo sapiens
[3] = Solubility in 20% hydroxyl propyl beta-cyclodextrin; type: physicochemical; conditions: 20% hydroxypropyl beta-cyclodextrin solution
[4] = test system: HCT-116; assay: cells; conditions: Homo sapiens
[5] = molecular target: Vascular endothelial growth factor receptor 2 (Homo sapiens, UniProt P35968); assay: Inhibition of VEGFR2
[6] = test system: A-375; assay: cells; conditions: Homo sapiens
[7] = test system: HeLa; assay: cells; conditions: Homo sapiens
[8] = molecular target: Receptor tyrosine-protein kinase erbB-2 (Homo sapiens, UniProt P04626); assay: Inhibition of HER2
[9] = molecular target: Proto-oncogene tyrosine-protein kinase receptor Ret (Homo sapiens, UniProt P07949); assay: Inhibition of RET
[10] = Half life in rat at 10 mg/kg, po; type: ADME, organism-based; set-up: dose 10 mg/kg, route oral; conditions: in vivo
[11] = Half life in rat at 2 mg/kg, iv; type: ADME, organism-based; set-up: dose 2 mg/kg, route intravenous; conditions: in vivo
[12] = Cmax in rat at 10 mg/kg, po; type: ADME, organism-based; set-up: dose 10 mg/kg, route oral; conditions: in vivo
[13] = AUC in rat at 10 mg/kg, po; type: ADME, organism-based; set-up: dose 10 mg/kg, route oral; conditions: plasma
[14] = Cmax in rat at 2 mg/kg, iv; type: ADME, organism-based; set-up: dose 2 mg/kg, route intravenous; conditions: in vivo
[15] = Oral bioavailability in rat at 10 mg/kg; type: ADME, organism-based; conditions: in vivo
[16] = test system: Rattus norvegicus; assay: (§1) AUC in rat at 2 mg/kg, iv; type: ADME, organism-based, Plasma; set-up: dose 2 mg/kg, route intravenous; conditions: in vivo
[17] = Clearance in rat at 2 mg/kg, iv; type: ADME, organism-based; set-up: dose 2 mg/kg, route intravenous; conditions: in vivo
[18] = as §1; type: ADME, organism-based, Plasma; set-up: dose 2 mg/kg, route intravenous; conditions: plasma

Vascular endothelial growth factor receptor 2, sequence (P35968 whole entry): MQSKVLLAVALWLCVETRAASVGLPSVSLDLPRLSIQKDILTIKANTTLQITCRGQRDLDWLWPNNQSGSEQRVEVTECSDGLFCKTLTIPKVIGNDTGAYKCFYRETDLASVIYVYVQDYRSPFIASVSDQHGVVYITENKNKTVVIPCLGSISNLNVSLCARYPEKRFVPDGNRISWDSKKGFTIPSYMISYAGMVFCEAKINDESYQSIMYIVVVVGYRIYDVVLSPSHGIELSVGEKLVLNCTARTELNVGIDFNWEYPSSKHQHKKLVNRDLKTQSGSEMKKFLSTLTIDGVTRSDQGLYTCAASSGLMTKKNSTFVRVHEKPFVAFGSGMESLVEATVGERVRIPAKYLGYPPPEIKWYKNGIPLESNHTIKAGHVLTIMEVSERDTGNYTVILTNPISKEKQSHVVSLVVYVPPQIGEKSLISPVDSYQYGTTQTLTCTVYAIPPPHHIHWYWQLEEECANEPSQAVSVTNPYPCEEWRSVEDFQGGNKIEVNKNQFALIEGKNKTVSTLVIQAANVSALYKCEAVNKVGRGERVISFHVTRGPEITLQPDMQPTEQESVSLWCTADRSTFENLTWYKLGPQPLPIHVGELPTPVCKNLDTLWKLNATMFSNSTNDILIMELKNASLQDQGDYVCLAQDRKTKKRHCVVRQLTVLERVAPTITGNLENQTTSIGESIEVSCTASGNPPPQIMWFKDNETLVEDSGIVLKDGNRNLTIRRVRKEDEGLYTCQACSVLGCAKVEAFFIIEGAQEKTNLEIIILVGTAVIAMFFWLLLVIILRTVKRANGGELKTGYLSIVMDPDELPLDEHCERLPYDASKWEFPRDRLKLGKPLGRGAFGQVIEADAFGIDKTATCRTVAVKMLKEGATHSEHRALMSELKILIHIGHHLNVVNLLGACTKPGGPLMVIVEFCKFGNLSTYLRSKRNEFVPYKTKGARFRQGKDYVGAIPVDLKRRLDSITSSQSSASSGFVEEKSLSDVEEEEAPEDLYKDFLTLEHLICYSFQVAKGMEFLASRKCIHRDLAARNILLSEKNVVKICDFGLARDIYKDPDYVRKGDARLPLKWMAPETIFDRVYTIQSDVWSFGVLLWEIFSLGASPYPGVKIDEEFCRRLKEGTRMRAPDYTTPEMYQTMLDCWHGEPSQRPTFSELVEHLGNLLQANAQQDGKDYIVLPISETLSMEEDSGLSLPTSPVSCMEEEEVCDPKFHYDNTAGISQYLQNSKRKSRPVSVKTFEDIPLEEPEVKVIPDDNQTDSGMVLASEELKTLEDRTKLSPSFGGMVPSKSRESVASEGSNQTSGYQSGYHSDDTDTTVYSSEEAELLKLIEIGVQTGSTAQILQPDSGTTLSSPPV
Cyclin-dependent kinase 1, sequence (P06493 whole entry): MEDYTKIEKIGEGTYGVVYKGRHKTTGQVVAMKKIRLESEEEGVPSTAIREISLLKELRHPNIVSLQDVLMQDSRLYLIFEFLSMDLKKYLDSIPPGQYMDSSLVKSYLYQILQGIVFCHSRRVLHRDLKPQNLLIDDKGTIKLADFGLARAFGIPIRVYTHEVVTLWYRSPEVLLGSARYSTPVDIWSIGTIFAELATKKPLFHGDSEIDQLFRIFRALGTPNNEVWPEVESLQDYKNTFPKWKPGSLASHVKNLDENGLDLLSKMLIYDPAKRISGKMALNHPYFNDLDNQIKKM
Receptor tyrosine-protein kinase erbB-2, sequence (P04626 whole entry): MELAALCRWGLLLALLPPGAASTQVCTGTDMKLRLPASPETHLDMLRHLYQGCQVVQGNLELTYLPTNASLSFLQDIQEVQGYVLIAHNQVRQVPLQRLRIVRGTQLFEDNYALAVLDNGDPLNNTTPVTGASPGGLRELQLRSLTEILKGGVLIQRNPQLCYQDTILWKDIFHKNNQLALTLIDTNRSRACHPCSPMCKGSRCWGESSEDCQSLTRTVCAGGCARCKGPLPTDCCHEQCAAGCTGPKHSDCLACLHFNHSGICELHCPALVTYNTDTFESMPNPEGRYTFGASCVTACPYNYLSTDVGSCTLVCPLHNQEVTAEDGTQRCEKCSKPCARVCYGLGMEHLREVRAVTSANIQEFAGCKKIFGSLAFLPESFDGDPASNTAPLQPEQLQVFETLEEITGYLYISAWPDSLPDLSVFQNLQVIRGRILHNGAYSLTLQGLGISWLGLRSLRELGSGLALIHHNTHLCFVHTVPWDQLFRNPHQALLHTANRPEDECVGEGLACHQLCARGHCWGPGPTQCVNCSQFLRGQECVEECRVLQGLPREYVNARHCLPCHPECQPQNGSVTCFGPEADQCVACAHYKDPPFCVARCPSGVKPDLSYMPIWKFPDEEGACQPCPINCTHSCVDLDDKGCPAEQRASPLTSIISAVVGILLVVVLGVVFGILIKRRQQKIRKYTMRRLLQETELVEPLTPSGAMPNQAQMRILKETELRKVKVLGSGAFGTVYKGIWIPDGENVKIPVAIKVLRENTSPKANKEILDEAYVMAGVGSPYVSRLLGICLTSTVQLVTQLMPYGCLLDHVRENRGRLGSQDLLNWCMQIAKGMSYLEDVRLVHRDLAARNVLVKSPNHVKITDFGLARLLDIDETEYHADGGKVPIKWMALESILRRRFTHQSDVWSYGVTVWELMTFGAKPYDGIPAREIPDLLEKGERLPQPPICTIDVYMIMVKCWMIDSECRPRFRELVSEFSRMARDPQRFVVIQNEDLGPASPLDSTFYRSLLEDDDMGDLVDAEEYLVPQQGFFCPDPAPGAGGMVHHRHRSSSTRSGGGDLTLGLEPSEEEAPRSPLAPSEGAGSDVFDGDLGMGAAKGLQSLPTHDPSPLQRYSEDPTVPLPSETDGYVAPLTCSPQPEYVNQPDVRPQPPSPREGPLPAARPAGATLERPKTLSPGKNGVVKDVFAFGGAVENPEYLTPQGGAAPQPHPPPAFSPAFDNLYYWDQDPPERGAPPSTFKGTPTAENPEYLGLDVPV
Proto-oncogene tyrosine-protein kinase receptor Ret, sequence (P07949 whole entry): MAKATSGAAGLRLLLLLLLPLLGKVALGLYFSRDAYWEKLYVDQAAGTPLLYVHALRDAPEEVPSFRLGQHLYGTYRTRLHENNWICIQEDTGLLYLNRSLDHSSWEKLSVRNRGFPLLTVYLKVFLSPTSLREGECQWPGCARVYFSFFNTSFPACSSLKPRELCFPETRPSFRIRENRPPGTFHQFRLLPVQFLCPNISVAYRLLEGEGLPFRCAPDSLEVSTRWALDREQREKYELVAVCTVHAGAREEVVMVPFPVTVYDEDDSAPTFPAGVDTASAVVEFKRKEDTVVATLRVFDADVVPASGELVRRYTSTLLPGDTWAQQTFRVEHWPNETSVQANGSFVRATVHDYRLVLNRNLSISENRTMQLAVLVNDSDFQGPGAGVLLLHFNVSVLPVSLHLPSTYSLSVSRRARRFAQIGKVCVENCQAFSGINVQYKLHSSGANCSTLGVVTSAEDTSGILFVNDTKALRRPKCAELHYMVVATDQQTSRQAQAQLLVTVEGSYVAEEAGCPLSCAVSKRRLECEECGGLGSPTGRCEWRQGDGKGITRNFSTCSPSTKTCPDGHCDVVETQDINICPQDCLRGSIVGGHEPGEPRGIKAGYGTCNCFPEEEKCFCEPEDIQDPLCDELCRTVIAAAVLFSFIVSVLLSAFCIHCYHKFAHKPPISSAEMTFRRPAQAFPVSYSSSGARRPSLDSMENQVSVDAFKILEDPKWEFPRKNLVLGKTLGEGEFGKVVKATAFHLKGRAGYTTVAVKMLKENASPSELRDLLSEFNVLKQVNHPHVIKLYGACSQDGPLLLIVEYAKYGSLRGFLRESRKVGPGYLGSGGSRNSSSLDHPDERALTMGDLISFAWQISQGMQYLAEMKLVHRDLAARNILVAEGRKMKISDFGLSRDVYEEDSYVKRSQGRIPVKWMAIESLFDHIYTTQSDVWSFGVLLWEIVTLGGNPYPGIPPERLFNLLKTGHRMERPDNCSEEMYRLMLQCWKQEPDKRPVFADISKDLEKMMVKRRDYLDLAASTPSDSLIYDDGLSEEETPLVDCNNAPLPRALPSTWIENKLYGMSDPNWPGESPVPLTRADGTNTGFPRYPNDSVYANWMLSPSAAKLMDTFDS

SMILES | IC50 [1] [nM] | IC50 [2] [nM] | IC50 [4] [nM] | IC50 [5] [nM] | IC50 [6] [nM] | IC50 [7] [nM] | further results
CNCc1cncc(-c2cnc3[nH]nc(-c4nc5cc(OC(F)(F)F)ccc5[nH]4)c3c2)c1 | 9 | 1000 | 55 | > 100 | 47 | – | solubility [3]: 12.5 mg/mL (≈ 28.4 mM)
O=C(O)c1cccc2[nH]c(-c3n[nH]c4ncc(-c5cncc6ccccc56)cc34)nc12 | – | > 10000 | > 10000 | > 10000 | > 10000 | > 10000 | –
c1ccc2c(-c3cnc4[nH]nc(-c5nc6ccccc6[nH]5)c4c3)cncc2c1 | 23 | – | 550 | – | 870 | 1700 | –
Cc1cccc2[nH]c(-c3n[nH]c4ncc(-c5cncc6ccccc56)cc34)nc12 | – | – | 1640 | 10000 | 1720 | 3090 | IC50 [8]: 1000 nM
OCc1cccc2[nH]c(-c3n[nH]c4ncc(-c5cncc6ccccc56)cc34)nc12 | – | > 10000 | 890 | > 100000 | – | 1760 | IC50 [8]: 240 nM
COCc1cccc2[nH]c(-c3n[nH]c4ncc(-c5cncc(CN(C)C)c5)cc34)nc12 | 120 | 3750 | 190 | 1600 | 330 | 1230 | –
CC(C)NCc1cccc2[nH]c(-c3n[nH]c4ncc(-c5cncc6ccccc56)cc34)nc12 | 13 | 3620 | 110 | 1000 | 140 | 130 | –
CCN(CC)C(=O)c1cccc2[nH]c(-c3n[nH]c4ncc(-c5cncc6ccccc56)cc34)nc12 | – | 1000 | 55 | 10000 | 71 | 170 | IC50 [8]: > 10000 nM
CCCNCc1cncc(-c2cnc3[nH]nc(-c4nc5c(COC)cccc5[nH]4)c3c2)c1 | – | 3990 | – | – | – | – | solubility [3]: 12.5 mg/mL (≈ 29.2 mM)
CCNCc1cncc(-c2cnc3[nH]nc(-c4nc5c(COC)cccc5[nH]4)c3c2)c1C | 110 | 8020 | – | 4670 | – | – | –
COCc1cccc2[nH]c(-c3nn(C)c4ncc(-c5cncc6ccccc56)cc34)nc12 | 120 | 100000 | 200 | > 100000 | 260 | 1170 | –
CCNCc1cncc(-c2cnc3[nH]nc(-c4nc5cc(OC)ccc5[nH]4)c3c2)c1 | – | 360 | 49 | > 100 | 100 | 32 | solubility [3]: 12.5 mg/mL (≈ 31.3 mM); IC50 [9]: 1000 nM
COC(=O)c1cccc2[nH]c(-c3n[nH]c4ncc(-c5cncc6ccccc56)cc34)nc12 | 10000 | – | – | 100000 | 7380 | 10500 | –
CCN(CC)Cc1cccc2[nH]c(-c3n[nH]c4ncc(-c5cncc6ccccc56)cc34)nc12 | 1.8 | – | 31 | 1550 | 47 | 29 | IC50 [8]: 89 nM
c1ccc2c(-c3cnc4[nH]nc(-c5nc6cc(N7CCOCC7)ccc6[nH]5)c4c3)cncc2c1 | – | 41 | 370 | 1070 | 300 | 400 | –
CN1CCN(c2ccc3[nH]c(-c4n[nH]c5ncc(-c6cncc7ccccc67)cc45)nc3c2)CC1 | 14 | – | 360 | – | 160 | 450 | half-life [10]: 3.3 h; half-life [11]: 0.73 h; Cmax [12]: 65 ng/mL; AUC [13]: 173 ng·h/mL; Cmax [14]: 1000 ng/mL; clearance [17]: 34.9 mL/min/kg; bioavailability [15]: 4%; AUC [18]: 959 ng·h/mL
CNCc1cncc(-c2cnc3[nH]nc(-c4nc5c(COC)cccc5[nH]4)c3c2)c1 | 2.5 | > 1000 | 310 | 640 | 270 | 460 | IC50 [9]: 1000 nM
COCc1cccc2[nH]c(-c3n[nH]c4ncc(-c5cnc6ccccc6c5)cc34)nc12 | – | > 100000 | – | > 100000 | 11 | 1460 | IC50 [8]: > 100000 nM; IC50 [9]: > 100000 nM

Second part, led by results:

IC50 [1] [nM] | IC50 [2] [nM] | IC50 [4] [nM] | IC50 [5] [nM] | IC50 [6] [nM] | IC50 [7] [nM] | SMILES | further results
3 | 280 | 540 | 25 | 630 | 470 | CCNCc1cncc(-c2cnc3[nH]nc(-c4nc5cc(N6CCN(C)CC6)ccc5[nH]4)c3c2)c1 | solubility [3]: 12.5 mg/mL (≈ 26.7 mM)
39 | > 100 | 42 | 380 | 65 | 35 | CC(C)NC(=O)c1cccc2[nH]c(-c3n[nH]c4ncc(-c5cncc6ccccc56)cc34)nc12 | –
– | > 1000 | 62 | 110 | 23 | 3090 | COCc1cccc2[nH]c(-c3n[nH]c4ncc(-c5ccncc5)cc34)nc12 | –
– | > 1000 | 95 | 100 | 46 | 140 | CCNCc1cncc(-c2cnc3[nH]nc(-c4nc5cc(F)c(F)cc5[nH]4)c3c2)c1 | solubility [3]: 12.5 mg/mL (≈ 30.8 mM)
– | > 1000 | 2880 | 100 | 910 | 2140 | CC(C)OCc1cccc2[nH]c(-c3n[nH]c4ncc(-c5cncc6ccccc56)cc34)nc12 | –
29 | > 1000 | 19 | 160 | 33 | 650 | COCc1cccc2[nH]c(-c3n[nH]c4ncc(-c5cccnc5)cc34)nc12 | –
– | 320 | 10 | 460 | 10 | 15 | COCc1cccc2[nH]c(-c3n[nH]c4ncc(-c5cncc6ccccc56)cc34)nc12 | –
– | 10000 | 330 | 110 | 160 | 9910 | COCc1cccc2[nH]c(-c3n[nH]c4ncc(-c5cncnc5)cc34)nc12 | –
– | 800 | 94 | 150 | 51 | 59 | CCNCc1cncc(-c2cnc3n[nH]c(-c4nc5ccc(F)cc5[nH]4)c3c2)c1 | half-life [10]: 31.3 h; solubility [3]: 12.5 mg/mL (≈ 32.3 mM); half-life [11]: 16.1 h; Cmax [12]: 3.8 ng/mL; AUC [13]: 150 ng·h/mL; Cmax [14]: 217 ng/mL; bioavailability [15]: 8%; AUC [16]: 372 ng·h/mL
